From patent US7750148B2, “Intermediate compound for the production of β-lactamase-resistant cephalosporin ester compounds and salts thereof” (Zhejiang Yongning Pharmaceutical Factory, priority 2003, dated 2010)
≈ marks a conversion by molar mass, not a printed value. Where two headings read alike, the source gives them in different places.

Experiments:
[1] = test system: Bacillus pneumoniae 46101; assay: In vitro antibacterial activity (MIC, agar double dilution); assay type: cell-based
Description: (§1) tested samples YR-1, YR-2 were the ones prepared in example 1 and example 5 respectively, control samples were cefetamet sodium (CTM), cefuroxime sodium (CRX), cefetamet sodium+sulbactam sodium (CTM+SBT) (molar ratio 1:1), cefuroxime+sulbactam sodium (CRX+SBT) (molar ratio 1:1). All control samples (have been sold on the market) were supplied by Zhejiang Yongning pharmaceutical factory.
(§2) Staphylococcus aureus 26003, Diplococcus lanceolatus 31002, E. coli 44102, Shigella sonnet 51081, Shigella bogdii 51313, Shigella flexneri 51573, Proteus mirabilis 49005, Bacillus proteus 49085, Proteus morganii 49086, Pseudomonas aeruginosa 10124, Bacillus pneumoniae 46101, Salmonella enteritidis 50041, Salmonella typhi 50097, Citrobacter 48017, Candida ciferii 41002 were supplied by Shanghai Hygienic and Antiepidemic Station.
(§3) Mueller-Hinton Agar (M.H) culture medium, batch number 20040528 (Shanghai Reagent Supply Research Center, China Diarrhea Disease Control).
(§4) Adopted agar double dilution, inoculated using multipoint inoculator, inoculated 10^5CFU/ML each point, cultured for 24 hours at 37° C., observed and recorded the results, set the least concentration of the antibacterial drug that can inhibit bacteria growth as the minimum inhibitory concentration (MIC).

[2] = test system: Bacillus proteus 49085; assay: as above; assay type: cell-based
Description: as §1, §2, §3, §4

[3] = test system: Candida ciferii 41002; assay: as above; assay type: cell-based
Description: as §1, §2, §3, §4

[4] = test system: Citrobacter 48017; assay: as above; assay type: cell-based
Description: as §1, §2, §3, §4

[5] = test system: Diplococcus lanceolatus 31002; assay: as above; assay type: cell-based
Description: as §1, §2, §3, §4

[6] = test system: E. coli 44102; assay: as above; assay type: cell-based
Description: as §1, §2, §3, §4

[7] = test system: Proteus mirabilis 49005; assay: as above; assay type: cell-based
Description: as §1, §2, §3, §4

[8] = test system: Pseudomonas aeruginosa 10124; assay: as above; assay type: cell-based
Description: as §1, §2, §3, §4

[9] = test system: Salmonella enteritidis 50041; assay: as above; assay type: cell-based
Description: as §1, §2, §3, §4

[10] = test system: Salmonella typhi 50097; assay: as above; assay type: cell-based; settings: 10^5CFU/ML each point, 24 hours at 37° C.
Description: as §1, §2, §3, §4

[11] = test system: Shigella bogdii 51313; assay: as above; assay type: cell-based
Description: as §1, §2, §3, §4

[12] = test system: Shigella flexneri 51573; assay: as above; assay type: cell-based
Description: as §1, §2, §3, §4

[13] = test system: Shigella sonnet 51081; assay: as above; assay type: cell-based
Description: as §1, §2, §3, §4

[14] = test system: Staphylococcus aureus 26003; assay: as above; assay type: cell-based
Description: as §1, §2, §3, §4

[15] = test system: Proteus morganii 49086; assay: as above; assay type: cell-based; set-up: MIC (as restated in the conclusions): unit not given here; settings: for antibacterial activities enhanced versus CTM or CRX used solely: YR-1 vs CTM, YR-2 vs CRX
Description: as §1, §2, §3, §4

[16] = test system: Bacillus aerogenes 45102; assay: as above; assay type: cell-based
Description: as §1
(§5) Staphylococcus epidermidis 26069 and Bacillus aerogenes 45102 were supplied by Beijing Drug & Biology Product Appraisal Bureau.
as §3, §4

[17] = test system: Staphylococcus epidermidis 26069; assay: as above; assay type: cell-based; settings: Staphylococcus epidermidis 26069, 10^5CFU/ML each point, 24 hours at 37° C.
Description: as §1, §5, §3, §4

[18] = test system: Diplococcus lanceolatus 0031; assay: as above; assay type: cell-based; settings: Diplococcus lanceolatus 0031, 10^5CFU/ML each point, 24 hours at 37° C.
Description: as §1
Diplococcus lanceolatus 0031 was supplied by Shanghai First People's Hospital.
as §3, §4

[19] = test system: Bacillus proteus 49085, Proteus morganii 49086; assay: Ex vivo antibacterial activity experiment after mouse is administered, conclusions (strains not separated); assay type: in vivo
Description: the sources of tested samples (YR-1, YR-2) and control samples (CTM, CRX, CTM+SBT 1:1 and CRX+SBT 1:1) are the same as above. Bacillus proteus 49085, Proteus morganii 49086, inoculated 10^5CFU/ML each dish. Mueller-Hinton Agar (M.H) culture medium, batch number 000707 (Shanghai Reagent Supply Research Center, China Diarrhea Disease Control). Strain: Kunming mice; source: Animal Facility of Shanghai Institute of Pharmaceutical Industry; certificate number: Hudonghezhengzi No. 107; animal numbers: 120; Sex: same number of male and female mice; Body weight: 18-21 g; fast time: 16 hours. Group 1: CTM, CRX, CTM+SBT 1:1, CRX+SBT 1:1 were given at a dosage of 500 mg/kg intravenously, collecting blood at 10 minutes, 30 minutes, 1 hour, 2 hours, 4 hours, 8 hours after administration. Group 2: […] Kunming mice were randomly divided into several groups according to body weight of empty stomach and sex. Collecting blood of three mice at different time point, anticoagulated with heparin, centrifugated and separated plasma, quantitative spotting, semi-quantitated antibacterial activity according to the size of bacterial inhibition ring.

[20] = mice, intragastric administration 1000 mg/kg
[21] = read-out: MIC of the drug to bacteria

For “5-thia-1-aza-bicyclo [4,2,0] octane-2-ene-2-carboxylic acid, 7-[[(2-amino-4-thiazolyl) (methoxy imine) acetyl]amino]-3-methyl-8-oxo-, [[3,3-dimethyl-4,4-dioxy-7-oxo-4-thia-1-aza-bicyclo [3,2,0] heptane-2-group]carbonyloxy]oxy]methyl ester [YR-1]”, which “MIC of the drug to bacteria” value ([1]; Bacillus pneumoniae 46101, 10^5CFU/ML each point, 24 hours at 37° C.) is on record?
The value was 0.78 µg/mL.

What about the “MIC of the drug to bacteria” value ([2]; Bacillus proteus 49085, 10^5CFU/ML each point, 24 hours at 37° C.) of the same compound?
Its value is 0.195 µg/mL.

And the “MIC of the drug to bacteria” value ([3]; Candida ciferii 41002, 10^5CFU/ML each point, 24 hours at 37° C.)?
Its value is 0.78 µg/mL.

And the “MIC of the drug to bacteria” value ([4]; Citrobacter 48017, 10^5CFU/ML each point, 24 hours at 37° C.)?
The value was 1.56 µg/mL.

And the “MIC of the drug to bacteria” value ([5]; Diplococcus lanceolatus 31002, 10^5CFU/ML each point, 24 hours at 37° C.)?
The value was 100 µg/mL.

What about the “MIC of the drug to bacteria” value ([6]; E. coli 44102, 10^5CFU/ML each point, 24 hours at 37° C.) of the same compound?
Its value is 1.56 µg/mL.

What about the “MIC of the drug to bacteria” value ([7]; Proteus mirabilis 49005, 10^5CFU/ML each point, 24 hours at 37° C.) of the same compound?
Its value is 0.098 µg/mL.

And the “MIC of the drug to bacteria” value ([8]; Pseudomonas aeruginosa 10124, 10^5CFU/ML each point, 24 hours at 37° C.)?
Its value is 100 µg/mL.

And the “MIC of the drug to bacteria” value ([9]; Salmonella enteritidis 50041, 10^5CFU/ML each point, 24 hours at 37° C.)?
Its value is 1.56 µg/mL.

What about the “MIC of the drug to bacteria” value [10] of the same compound?
The value was 1.56 µg/mL.

What about the “MIC of the drug to bacteria” value ([11]; Shigella bogdii 51313, 10^5CFU/ML each point, 24 hours at 37° C.) of the same compound?
The value was 0.39 µg/mL.

And the “MIC of the drug to bacteria” value ([12]; Shigella flexneri 51573, 10^5CFU/ML each point, 24 hours at 37° C.)?
Its value is 0.39 µg/mL.

What about the “MIC of the drug to bacteria” value ([13]; Shigella sonnet 51081, 10^5CFU/ML each point, 24 hours at 37° C.) of the same compound?
The value was 0.39 µg/mL.

What about the “MIC of the drug to bacteria” value ([14]; Staphylococcus aureus 26003, 10^5CFU/ML each point, 24 hours at 37° C.) of the same compound?
The value was 100 µg/mL.

And the “MIC (as restated in the conclusions)” value ([15]; Proteus morganii 49086)?
Its value is 0.78.

And the “MIC of the drug to bacteria” value ([15]; Proteus morganii 49086, 10^5CFU/ML each point, 24 hours at 37° C.)?
Its value is 0.78 µg/mL.

What about the “antibacterial activities enhanced versus CTM or CRX used solely” value ([15]; Proteus morganii 49086) of the same compound?
Its value is “one hundred times”.

And the “MIC of the drug to bacteria” value ([16]; Bacillus aerogenes 45102, 10^5CFU/ML each point, 24 hours at 37° C.)?
The value was 0.39 µg/mL.

What about the “MIC of the drug to bacteria” value [17] of the same compound?
The value was 50 µg/mL.

And the “MIC of the drug to bacteria” value [18]?
Its value is 50 µg/mL.

And the blood drug concentrations ([19]; in vivo, 1000 mg/kg)?
Its blood drug concentrations is “stable and persistent”.

And the “antibacterial activities in blood 8 hours after administration” value [19, 20]?
Its value is “can be detected”.

And the “half-life period (compared with the intravenous controls)” value ([19]; mouse, in vivo, 1000 mg/kg)?
Its value is “longer half-life period”.

For `CON=C(C(=O)NC1C(=O)N2C(C(=O)OCOC(=O)C3N4C(=O)CC4S(=O)(=O)C3(C)C)=C(COC(N)=O)CSC12)c1ccco1` (stereo not shown) [YR-2, 5-thia-1-aza-bicyclo [4,2,0] octane-2-ene-2-carboxylic acid, 7-[[(2-furane (methoxy imine)acetyl)amino]-3-[[(aminocarbonyloxy)oxy]methyl]-8-oxo-, [[3,3-dimethyl-4,4-dioxy-7-oxo-4-thia-1-aza-bicyclo[3,2,0]heptane-2-group]carbonyloxy]oxy]methyl ester], which MIC ([1]; Klebsiella pneumoniae, 46101, 24 h, read-out: MIC of the drug to bacteria) is on record?
Its MIC is 12.5 µg/mL.

And the MIC ([2]; Bacillus, 49085, 24 h, read-out: MIC of the drug to bacteria)?
Its MIC is 0.78 µg/mL.

What about the MIC ([3]; Candida, 41002, 24 h, read-out: MIC of the drug to bacteria) of the same compound?
The MIC was 50 µg/mL.

What about the MIC ([4]; Citrobacter, 48017, 24 h, read-out: MIC of the drug to bacteria) of the same compound?
Its MIC is 3.13 µg/mL.

And the MIC ([5]; 24 h, read-out: MIC of the drug to bacteria)?
Its MIC is 25 µg/mL.

And the MIC ([6]; Escherichia coli, 44102, 24 h, read-out: MIC of the drug to bacteria)?
Its MIC is 12.5 µg/mL.

What about the MIC ([7]; Proteus mirabilis, 49005, 24 h, read-out: MIC of the drug to bacteria) of the same compound?
Its MIC is 3.13 µg/mL.

And the MIC ([8]; Pseudomonas aeruginosa, 10124, 24 h, read-out: MIC of the drug to bacteria)?
Its MIC is 100 µg/mL.

And the MIC ([9]; Salmonella enterica, ENTERITIDIS, 24 h, read-out: MIC of the drug to bacteria)?
The MIC was 12.5 µg/mL.

And the MIC ([10]; Salmonella enterica, read-out: MIC of the drug to bacteria)?
Its MIC is 6.25 µg/mL.

And the MIC ([11]; Shigella, 51313, 24 h, read-out: MIC of the drug to bacteria)?
The MIC was 1.56 µg/mL.

What about the MIC ([12]; Shigella flexneri, 51573, 24 h, read-out: MIC of the drug to bacteria) of the same compound?
Its MIC is 3.13 µg/mL.

And the MIC ([13]; Shigella, 51081, 24 h, read-out: MIC of the drug to bacteria)?
Its MIC is 1.56 µg/mL.

And the MIC ([14]; Staphylococcus aureus, 26003, 24 h, read-out: MIC of the drug to bacteria)?
The MIC was 6.25 µg/mL.

What about the MIC ([15]; Morganella morganii, 49086, 24 h, read-out: MIC of the drug to bacteria) of the same compound?
Its MIC is 25 µg/mL.

What about the MIC ([15]; Morganella morganii, 49086, read-out: MIC (as restated in the conclusions)) of the same compound?
The MIC was 25000 µg/mL (≈ 37.3 mM).

What about the “antibacterial activities enhanced versus CTM or CRX used solely” value ([15]; Proteus morganii 49086) of the same compound?
Its value is “four times”.

And the MIC ([16]; Bacillus, 45102, 24 h, read-out: MIC of the drug to bacteria)?
Its MIC is 6.25 µg/mL.

And the MIC [17, 21]?
The MIC was 0.78 µg/mL.

What about the MIC [18, 21] of the same compound?
The MIC was 0.78 µg/mL.

What about the blood drug concentrations ([19]; in vivo, 1000 mg/kg) of the same compound?
Its blood drug concentrations is “stable and persistent”.

And the “antibacterial activities in blood 8 hours after administration” value [19, 20]?
The value was “can be detected”.

And the “half-life period (compared with the intravenous controls)” value [19, 20]?
Its value is “longer half-life period”.
